Measurements as given in patent publication US20190069550A1, “HERBICIDAL COMPOSITIONS CONTAINING PYRIDINE CARBOXYLIC ACIDS OR DERIVATIVES THEREOF, WITH PDS AND VLCFA INHIBITORS, OR DERIVATIVES THEREOF” (Dow AgroSciences LLC, priority 2017, published 2019).
“And” between values parts separate entries of the source, which are not always exact repeats. Identical values can stand only once.

Assays:
Type in all cases: in vivo
Details in all cases: 20-22 d
[1] = system: Abutilon theophrasti (velvetleaf); test: Postemergence herbicidal activity, greenhouse, ABUTH
Description: (§1) Seeds of the desired test plant species were planted in Sun Gro MetroMix® 360 planting mixture, which typically has a pH of 6.0 to 6.8 and an organic matter content of about 30 percent, in plastic pots with a surface area of 103.2 square centimeters (cm^2). When required to ensure good germination and healthy plants, a fungicide treatment and/or other chemical or physical treatment was applied. The plants were grown for 7-36 days (d) in a greenhouse with an approximate 14-hour (h) photoperiod which was maintained at about 23° C. during the day and 22° C. during the night. Nutrients and water were added on a regular basis and supplemental lighting was provided with overhead metal halide 1000-Watt lamps as necessary. The plants were employed for testing when they reached the second or third true leaf stage.
(§2) Weighed amounts of technical material were dissolved in a volume of 97:3 volume per volume (v/v) acetone/dimethyl sulfoxide (DMSO) to make stock solutions. […] The concentrated stock solutions were diluted with an aqueous mixture of 1.5% v/v of Agri-dex crop oil concentrate to provide the appropriate application rates. […]
(§3) The treated plants and control plants were placed in a greenhouse as described above and watered by sub-irrigation to prevent wash-off of the test compounds. After 20-22 d, the condition of the test plants as compared with that of the control plants was determined visually and scored on a scale of 0 to 100 percent where 0 corresponds to no injury and 100 corresponds to complete kill. The condition of the test plants was compared with that of the control plants as determined visually and scored on a scale of 0 to 100 percent, where 0 corresponds to no injury and 100 corresponds to complete kill. […]
(§4) Compound 1 was formulated as an EC and was combined with phytoene desaturase inhibitor herbicides, very long chain fatty acid inhibitor herbicides, or mixtures thereof, and applied to weeds, and the phytotoxicity of the herbicidal composition was measured. […]

[2] = system: Cirsium arvense (thistle); test: Postemergence herbicidal activity, greenhouse, CIRAR
Description: as §1
(§5) Weighed amounts of technical material were dissolved in a volume of 97:3 volume per volume (v/v) acetone/dimethyl sulfoxide (DMSO) to make stock solutions. […] The concentrated stock solutions were diluted with an aqueous mixture of 1.5% v/v of Agri-dex crop oil concentrate to provide the appropriate application rates. Compound requirements are based upon a 12 milliliter (mL) application volume at a rate of 187 liters per hectare (UJha). Spray solutions of the experimental compound mixtures were prepared by adding the stock solutions to the appropriate amount of dilution solution to form a 12 mL spray solution in two-way combinations. Formulated compounds were applied to the plant material with an overhead Mandel track sprayer equipped with 8002E nozzles calibrated to deliver 187 L/ha over an application area of 0.503 square meters (m^2) at a spray height of 18 inches ([…] (cm)) above average plant canopy. Control plants were sprayed in the same manner with the solvent blank. Application rates for component (a) are in g ae/ha, and application rates for component (b) are in g ai/ha.
as §3, §4

[3] = system: Chenopodium album L. (common lambsquarters); test: Postemergence herbicidal activity, greenhouse, CHEAL
Description: as §1, §5, §3, §4

[4] = system: Euphorbia heterophylla (poinsettia); test: Postemergence herbicidal activity, greenhouse, EPHHL
Description: as §1, §5
The treated plants and control plants were placed in a greenhouse as described above and watered by sub-irrigation to prevent wash-off of the test compounds. After 20-22 d, the condition of the test plants as compared with that of the control plants was determined visually and scored on a scale of 0 to 100 percent where 0 corresponds to no injury and 100 corresponds to complete kill. The condition of the test plants was compared with that of the control plants as determined visually and scored on a scale of 0 to 100 percent, where 0 corresponds to no injury and 100 corresponds to complete kill. Colby's equation was used to determine the herbicidal effects expected from the mixtures.
as §4

[5] = system: Amaranthus retroflexus (pigweed); test: Postemergence herbicidal activity, greenhouse, AMARE
Description: as §1, §2, §3, §4

[6] = system: Brassica napus (spring rape); test: Postemergence herbicidal activity, greenhouse, BRSNN
Description: as §1, §2, §3, §4

[7] = system: Cyperus esculentus (nutsedge); test: Postemergence herbicidal activity, greenhouse, CYPES
Description: When required to ensure good germination and healthy plants, a fungicide treatment and/or other chemical or physical treatment was applied. The plants were grown for 7-36 days (d) in a greenhouse with an approximate 14-hour (h) photoperiod which was maintained at about 23° C. during the day and 22° C. during the night. Nutrients and water were added on a regular basis and supplemental lighting was provided with overhead metal halide 1000-Watt lamps as necessary. The plants were employed for testing when they reached the second or third true leaf stage. Weighed amounts of technical material were dissolved in a volume of 97:3 volume per volume (v/v) acetone/dimethyl sulfoxide (DMSO) to make stock solutions. […] The concentrated stock solutions were diluted with an aqueous mixture of 1.5% v/v of Agri-dex crop oil concentrate to provide the appropriate application rates. Compound requirements are based upon a 12 milliliter (mL) application volume at a rate of 187 liters per hectare (UJha). Spray solutions of the experimental compound mixtures were prepared by adding the stock solutions to the appropriate amount of dilution solution to form a 12 mL spray solution in two-way combinations. […] Control plants were sprayed in the same manner with the solvent blank. Application rates for component (a) are in g ae/ha, and application rates for component (b) are in g ai/ha. The treated plants and control plants were placed in a greenhouse as described above and watered by sub-irrigation to prevent wash-off of the test compounds. […] Colby's equation was used to determine the herbicidal effects expected from the mixtures. Compound 1 was formulated as an EC and was combined with phytoene desaturase inhibitor herbicides, very long chain fatty acid inhibitor herbicides, or mixtures thereof, and applied to weeds, and the phytotoxicity of the herbicidal composition was measured. […]

[8] = system: Echinochloa crus-galli (barnyardgrass); test: Postemergence herbicidal activity, greenhouse, ECHCG
Description: as §1, §2, §3, §4

[9] = system: Ipomoea hederacea (ivyleaf morningglory); test: Postemergence herbicidal activity, greenhouse, IPOHE
Description: as §1, §2, §3, §4

[10] = system: Polygonum convolvulus (wild buckwheat); test: Postemergence herbicidal activity, greenhouse, POLCO
Description: as §1, §2, §3, §4

[11] = system: Sorghum vulgare (grain sorghum); test: Postemergence herbicidal activity, greenhouse, SORVU
Description: as §1, §2, §3, §4

[12] = system: Triticum aestivum (winter wheat); test: Postemergence crop injury, greenhouse, TRZAW
Description: as §1, §2, §3, §4

[13] = system: Viola tricolor (wild pansy); test: Postemergence herbicidal activity, greenhouse, VIOTR
Description: as §1, §2, §3, §4

Zea mays (maize/corn) = test: Postemergence crop injury, greenhouse, ZEAMX
Description: as §1, §2, §3, §4

[14] = system: Digitaria sanguinalis (large crabgrass); test: Postemergence herbicidal activity, greenhouse, DIGSA
Description: as §1, with “The plants were employed for testing when they reached the second or third true leaf stage.” left out
as §3

Kochia scoparia (kochia) = test: Postemergence herbicidal activity, greenhouse, KCHSC
Description: as §1, §2, §3, §4

Oryza sativa (rice) = test: Postemergence crop injury, greenhouse, ORYSA
Description: as §1, with “The plants were employed for testing when they reached the second or third true leaf stage.” left out
as §3

[15] = system: Stellaria media (chickweed); test: Postemergence herbicidal activity, greenhouse, STEME
Description: as §1, with “The plants were employed for testing when they reached the second or third true leaf stage.” left out
as §3

[16] = system: Veronica hederifolia (ivyleaf speedwell); test: Postemergence herbicidal activity, greenhouse, VERHE
Description: as §1, with “The plants were employed for testing when they reached the second or third true leaf stage.” left out
as §3

CC(C)N(C(=O)COc1nnc(C(F)(F)F)s1)c1ccc(F)cc1 [Flufenacet, N-(4-fluorophenyl)-N-(1-methylethyl)-2-[[5-(trifluoromethyl)-1,3,4-thiadiazol-2-yl]oxy]acetamide]
% Visual Injury ([1]; flufenacet 60 g ai/ha): 0% | % Visual Injury ([2]; flufenacet 60 g ai/ha): 0% | % Visual Injury ([3]; flufenacet 60 g ai/ha): 10% | % Visual Injury ([4]; flufenacet 60 g ai/ha): 0%

O=C(Nc1ccc(F)cc1)c1cccc(Oc2cccc(C(F)(F)F)c2)n1 [Picolinafen, N-(4-fluorophenyl)-6-[3-(trifluoromethyl)phenoxy]-2-pyridinecarboxamide]
% Visual Injury ([5]; picolinafen 12.5 g ai/ha): 20% | % Visual Injury ([6]; picolinafen 12.5 g ai/ha): 25% | % Visual Injury ([2]; picolinafen 12.5 g ai/ha): 10% | % Visual Injury ([7]; picolinafen 12.5 g ai/ha): 0% | % Visual Injury ([8]; picolinafen 12.5 g ai/ha): 10% | % Visual Injury ([9]; picolinafen 12.5 g ai/ha): 5% | % Visual Injury ([10]; picolinafen 12.5 g ai/ha): 0% | % Visual Injury ([11]; picolinafen 12.5 g ai/ha): 0% | % Visual Injury ([12]; picolinafen 12.5 g ai/ha): 0% | % Visual Injury ([13]; picolinafen 12.5 g ai/ha): 10% | % Visual Injury (Zea mays (maize/corn); picolinafen 12.5 g ai/ha): 5%

O=C(Nc1ccc(F)cc1F)c1cccnc1Oc1cccc(C(F)(F)F)c1 [Diflufenican, N-(2,4-difluorophenyl)-2-[3-(trifluoromethyl)phenoxy]-3-pyridinecarboxamide]
% Visual Injury ([1]; diflufenican 50 g ai/ha): 0% | % Visual Injury ([6]; diflufenican 50 g ai/ha): 20% | % Visual Injury ([2]; diflufenican 50 g ai/ha): 20% | % Visual Injury ([7]; diflufenican 50 g ai/ha): 0% | % Visual Injury ([14]; diflufenican 50 g ai/ha): 10% | % Visual Injury ([8]; diflufenican 50 g ai/ha): 0% | % Visual Injury ([4]; diflufenican 50 g ai/ha): 10% | % Visual Injury ([9]; diflufenican 50 g ai/ha): 0% | % Visual Injury (Kochia scoparia (kochia); diflufenican 50 g ai/ha): 10% | % Visual Injury (Oryza sativa (rice); diflufenican 50 g ai/ha): 0% | % Visual Injury ([10]; diflufenican 50 g ai/ha): 10% | % Visual Injury ([11]; diflufenican 50 g ai/ha): 0% | % Visual Injury ([12]; diflufenican 50 g ai/ha): 0% | % Visual Injury (Zea mays (maize/corn); diflufenican 50 g ai/ha): 5%

Nc1c(F)c(-c2ccc3cc[nH]c3c2F)nc(C(=O)O)c1Cl [Compound 1]
% Visual Injury ([1]; 10 g ae/ha): 50% | % Visual Injury ([5]; 5 g ae/ha): 93% and 65% | % Visual Injury ([6]; 5 g ae/ha): 50% | % Visual Injury ([2]; 10 g ae/ha): 60% | % Visual Injury ([3]; 5 g ae/ha): 90% and 80% | % Visual Injury ([3]; 10 g ae/ha): 95% | % Visual Injury ([7]; 5 g ae/ha): 10% | % Visual Injury ([14]; 5 g ae/ha): 0% | % Visual Injury ([8]; 5 g ae/ha): 60% | % Visual Injury ([4]; 5 g ae/ha): 97% and 75% | % Visual Injury ([4]; 10 g ae/ha): 100% | % Visual Injury ([9]; 5 g ae/ha): 20% | % Visual Injury (Kochia scoparia (kochia); 5 g ae/ha): 65% | % Visual Injury (Oryza sativa (rice); 5 g ae/ha): 0% | % Visual Injury ([10]; 5 g ae/ha): 70% | % Visual Injury ([11]; 5 g ae/ha): 60% | % Visual Injury ([15]; 5 g ae/ha): 65% | % Visual Injury ([12]; 5 g ae/ha): 10% | % Visual Injury ([16]; 5 g ae/ha): 40% | % Visual Injury ([13]; 5 g ae/ha): 10% and 5% | % Visual Injury (Zea mays (maize/corn); 5 g ae/ha): 10%

Cn1nc(C(F)(F)F)c(CS(=O)(=O)C2=NOC(C)(C)C2)c1OC(F)F [Pyroxasulfone, 3-[[[5-(difluoromethoxy)-1-methyl-3-(trifluoromethyl)-1H-pyrazol-4-yl]methyl]sulfonyl]-4,5-dihydro-5,5-dimethylisoxazole]
% Visual Injury ([5]; pyroxasulfone 100 g ai/ha): 0% | % Visual Injury ([3]; pyroxasulfone 100 g ai/ha): 10% | % Visual Injury ([4]; pyroxasulfone 100 g ai/ha): 0% | % Visual Injury (Kochia scoparia (kochia); pyroxasulfone 100 g ai/ha): 0% | % Visual Injury ([15]; pyroxasulfone 100 g ai/ha): 40% | % Visual Injury ([16]; pyroxasulfone 100 g ai/ha): 0% | % Visual Injury ([13]; pyroxasulfone 100 g ai/ha): 0%
